Each structure is given as a SMILES string. Bounds are passed on as bounds.

The test system of data set [1] is Influenza A virus. In words: Antiviral activity against influenza A virus A/WSN/33(H1N1) infected in MDCK cells assessed as inhibition of viral-induced cytopathic effect incubated for 48 hrs by microscopic analysis. Format: functional, organism-based.
Data set [2] is described as follows: Cytotoxicity against dog MDCK cells assessed as reduction in cell viability incubated for 48 hrs by celltiter-glo assay. Format: toxicity, cell-based, Canis lupus familiaris.
Data set [3] in a line: Selectivity index, ratio of CC50 for cytotoxicity against dog MDCK cells assessed as reduction in cell viability to IC50 for antiviral activity against influenza A virus A/WSN/33(H1N1) infected in MDCK cells assessed as inhibition of viral-induced cytopathic effect. Format: toxicity, cell-based. The settings on record: read-out: Ratio CC50/IC50.
Data set [4] deals with Influenza A virus. In words: Antiviral activity against influenza A virus B/Sichuan/531/2018 (Victoria) infected in MDCK cells assessed as inhibition of viral growth. Format: functional, organism-based.
A short description of data set [5]: Selectivity index, ratio of CC50 for cytotoxicity against dog MDCK cells assessed as reduction in cell viability to IC50 for antiviral activity against influenza A virus B/Sichuan/531/2018 (Victoria) infected in MDCK cells assessed as inhibition of viral growth. The note with it: read-out: Ratio CC50/IC50. Format: toxicity, cell-based.
Data set [6] concerns Influenza A virus. In words: Antiviral activity against influenza A virus B/Darwin/58/2019 (Yamagata) infected in MDCK cells assessed as inhibition of viral growth. Format: functional, organism-based.
Data set [7] can be described thus: Selectivity index, ratio of CC50 for cytotoxicity against dog MDCK cells assessed as reduction in cell viability to IC50 for antiviral activity against influenza A virus B/Darwin/58/2019 (Yamagata) infected in MDCK cells assessed as inhibition of viral growth. Format: toxicity, cell-based. The note with it: read-out: Ratio CC50/IC50.
Data set [8] is described as follows: Cytotoxicity against dog MDCK cells assessed as cell viability at 30 uM incubated for 48 hrs by celltiter-glo assay. Format: toxicity, cell-based, Canis lupus familiaris. The settings on record: read-out: Activity.
The subject of data set [9] is Influenza A virus. The data set is described as follows: Antiviral activity against influenza A virus A/WSN/33(H1N1) infected in MDCK cells assessed as inhibition of viral growth at 30 uM incubated for 48 hrs by microscopic analysis. Format: functional. On the set-up: scale not given: the % may be the effect or the level left.
A further data set deals with Erythrocyte. In words: Hemolytic activity in rabbit RBC assessed as hemolysis at 300 uM incubated for 2 hr by spectrophotometry analysis. Format: toxicity, cell-based, Oryctolagus cuniculus.

On to `O=C1c2c(O)c(=O)ccn2N([C@@H]2c3ccccc3SCc3c2ccc(F)c3F)[C@@H]2COCCN12` [BALOXAVIR], for which the IC50 was 0.009 µM in the data set with Influenza A virus [1], 0.07 µM in the data set with Influenza A virus [4] and 3.78 µM in the data set on Influenza A virus [6]. Besides, in data set [2], the CC50 at 48 h came to 9.56 µM. Also, the results for the selectivity ratio in data set [3], in data set [5] and in data set [7] were 1650, 137 and 2.53, respectively.

Consider `CC1(C)CC[C@]2(C(=O)NCCOCCOCCOCCOCCn3cc(COc4cc(C(=O)NCCNC(=O)OCCn5cc(COc6cc(OCc7cn(CCOC(=O)NCCNC(=O)c8cc(OCc9cn(CCOCCOCCOCCOCCNC(=O)[C@]%10%11CCC(C)(C)C[C@H]%10C%10=CC[C@@H]%12[C@@]%13(C)CC[C@H](O)C(C)(C)[C@@H]%13CC[C@@]%12(C)[C@]%10(C)CC%11)nn9)c(OCc9cn(CCOCCOCCOCCOCCNC(=O)[C@]%10%11CCC(C)(C)C[C@H]%10C%10=CC[C@@H]%12[C@@]%13(C)CC[C@H](O)C(C)(C)[C@@H]%13CC[C@@]%12(C)[C@]%10(C)CC%11)nn9)c(OCc9cn(CCOCCOCCOCCOCCNC(=O)[C@]%10%11CCC(C)(C)C[C@H]%10C%10=CC[C@@H]%12[C@@]%13(C)CC[C@H](O)C(C)(C)[C@@H]%13CC[C@@]%12(C)[C@]%10(C)CC%11)nn9)c8)nn7)cc(OCc7cn(CCOC(=O)NCCNC(=O)c8cc(OCc9cn(CCOCCOCCOCCOCCNC(=O)[C@]%10%11CCC(C)(C)C[C@H]%10C%10=CC[C@@H]%12[C@@]%13(C)CC[C@H](O)C(C)(C)[C@@H]%13CC[C@@]%12(C)[C@]%10(C)CC%11)nn9)c(OCc9cn(CCOCCOCCOCCOCCNC(=O)[C@]%10%11CCC(C)(C)C[C@H]%10C%10=CC[C@@H]%12[C@@]%13(C)CC[C@H](O)C(C)(C)[C@@H]%13CC[C@@]%12(C)[C@]%10(C)CC%11)nn9)c(OCc9cn(CCOCCOCCOCCOCCNC(=O)[C@]%10%11CCC(C)(C)C[C@H]%10C%10=CC[C@@H]%12[C@@]%13(C)CC[C@H](O)C(C)(C)[C@@H]%13CC[C@@]%12(C)[C@]%10(C)CC%11)nn9)c8)nn7)c6)nn5)cc(OCc5cn(CCOCCOCCOCCOCCNC(=O)[C@]67CCC(C)(C)C[C@H]6C6=CC[C@@H]8[C@@]9(C)CC[C@H](O)C(C)(C)[C@@H]9CC[C@@]8(C)[C@]6(C)CC7)nn5)c4OCc4cn(CCOCCOCCOCCOCCNC(=O)[C@]56CCC(C)(C)C[C@H]5C5=CC[C@@H]7[C@@]8(C)CC[C@H](O)C(C)(C)[C@@H]8CC[C@@]7(C)[C@]5(C)CC6)nn4)nn3)CC[C@]3(C)C(=CC[C@@H]4[C@@]5(C)CC[C@H](O)C(C)(C)[C@@H]5CC[C@]43C)[C@@H]2C1`, for which, in data set [8], the viability at 48 h, 30 µM worked out at 99.3%. Moreover, the figures for the Activity in the data set with Influenza A virus [9] and in the data set on Erythrocyte were 53.88% and “Non-Toxic”, respectively. For the same compound, the cytotoxic concentration (CC50) at 48 h in [2] was over 30 µM.

`CCOC(=O)C1=C[C@@H](OC(CC)CC)[C@H](NC(C)=O)[C@@H](N)C1.O=P(O)(O)O` [OSELTAMIVIR PHOSPHATE]: in data set [8], the viability at 48 h, 30 µM was 100%. The Activity in the data set with Influenza A virus [9] came to 89.22%. Moreover, the CC50 at 48 h in [2] was over 100 µM. Moreover, the selectivity ratio in [3] was over 55. Further, the IC50 in the data set with Influenza A virus [4] and with Influenza A virus [6] was over 100 µM throughout.

Regarding `CC1(C)CC[C@]2(C(=O)NCCOCCOCCn3cc(COc4cc(C(=O)NCCNC(=O)OCCn5cc(COc6cc(OCc7cn(CCOC(=O)NCCNC(=O)c8cc(OCc9cn(CCOCCOCCNC(=O)[C@]%10%11CCC(C)(C)C[C@H]%10C%10=CC[C@@H]%12[C@@]%13(C)CC[C@H](O)C(C)(C)[C@@H]%13CC[C@@]%12(C)[C@]%10(C)CC%11)nn9)c(OCc9cn(CCOCCOCCNC(=O)[C@]%10%11CCC(C)(C)C[C@H]%10C%10=CC[C@@H]%12[C@@]%13(C)CC[C@H](O)C(C)(C)[C@@H]%13CC[C@@]%12(C)[C@]%10(C)CC%11)nn9)c(OCc9cn(CCOCCOCCNC(=O)[C@]%10%11CCC(C)(C)C[C@H]%10C%10=CC[C@@H]%12[C@@]%13(C)CC[C@H](O)C(C)(C)[C@@H]%13CC[C@@]%12(C)[C@]%10(C)CC%11)nn9)c8)nn7)cc(OCc7cn(CCOC(=O)NCCNC(=O)c8cc(OCc9cn(CCOCCOCCNC(=O)[C@]%10%11CCC(C)(C)C[C@H]%10C%10=CC[C@@H]%12[C@@]%13(C)CC[C@H](O)C(C)(C)[C@@H]%13CC[C@@]%12(C)[C@]%10(C)CC%11)nn9)c(OCc9cn(CCOCCOCCNC(=O)[C@]%10%11CCC(C)(C)C[C@H]%10C%10=CC[C@@H]%12[C@@]%13(C)CC[C@H](O)C(C)(C)[C@@H]%13CC[C@@]%12(C)[C@]%10(C)CC%11)nn9)c(OCc9cn(CCOCCOCCNC(=O)[C@]%10%11CCC(C)(C)C[C@H]%10C%10=CC[C@@H]%12[C@@]%13(C)CC[C@H](O)C(C)(C)[C@@H]%13CC[C@@]%12(C)[C@]%10(C)CC%11)nn9)c8)nn7)c6)nn5)cc(OCc5cn(CCOCCOCCNC(=O)[C@]67CCC(C)(C)C[C@H]6C6=CC[C@@H]8[C@@]9(C)CC[C@H](O)C(C)(C)[C@@H]9CC[C@@]8(C)[C@]6(C)CC7)nn5)c4OCc4cn(CCOCCOCCNC(=O)[C@]56CCC(C)(C)C[C@H]5C5=CC[C@@H]7[C@@]8(C)CC[C@H](O)C(C)(C)[C@@H]8CC[C@@]7(C)[C@]5(C)CC6)nn4)nn3)CC[C@]3(C)C(=CC[C@@H]4[C@@]5(C)CC[C@H](O)C(C)(C)[C@@H]5CC[C@]43C)[C@@H]2C1`, in data set [8], the viability at 48 h, 30 µM worked out at 97.2%. The Activity with Influenza A virus [9] is listed as 97.28%. Also, the half-maximal inhibitory concentration (IC50) in the data set on Influenza A virus [1] was 18.1 µM. Besides, the CC50 at 48 h in [2] was over 30 µM. In addition, the selectivity ratio in data set [3] is over 1.66.

(Values after ChEMBL document CHEMBL5625165, “Nine-valent oleanolic acid conjugates as potent inhibitors blocking the entry of influenza A virus” (Eur J Med Chem, 2023).)
